Like-named read-outs stand apart in the source and are kept apart here.
Test system: Dd2 strain of P. falciparum
Assay: Activity against the Dd2 strain of P. falciparum (SYBR Green I, 72-h incubation)
Assay type: cell-based
Conditions: read-out: EC^50 Dd2
Description: The Dd2 strain of P. falciparum was cultured in complete medium (RPMI with L-glutamine, 4.3% heat-inactivated O-positive human serum, 2.08 mg/ml albumax, 0.013 mg/ml hypoxanthine, 1.17 mg/ml glucose, 0.18% NaHCO3, 0.031 M Hepes, 2.60 mM NaOH, and 0.043 mg/ml gentamicin) until the parasitemia reached 3-8%. Parasitemia was determined by checking at least 500 red blood cells from a Giemsa-stained blood smear. The Dd2 cultures along with tested O-positive red blood cells are centrifuged at room temperature at 2,000 rpm for 5 min using an Eppendorf centrifuge 581 OR with an A-4-81 rotor. The medium was aspirated off. For the compound screening, a parasite dilution at a 1% parasitemia and 1.0% hematocrit was created with screening medium (RPMI with L-glutamine, 4.16 mg/ml albumax II, 0.013 mg/ml hypoxanthine, 1.73 mg/ml glucose, 0.18% NaHCO3, 0.031M Hepes, 2.60 mM NaOH, and 0.043 mg/ml gentamicin). The suspension was gassed with 93% nitrogen, 4% carbon dioxide, and 3% oxygen and placed at 37° C. until needed. Using a liquid dispenser, 20 μl of screening medium was dispensed into 384-well, black, clear-bottom plates. With a PinTool, 100 nl of compounds dissolved in DMSO was transferred into the assay plates along with control compound (mefloquine). Next, 30 μl of the parasite suspension in screening medium was then dispensed into the assay plates such that the final parasitemia was 1%, and the final hematocrit was 1.0%. Final concentration of DMSO was 0.125%. Mefloquine at a final concentration of 20 μM and DMSO at a final concentration of 0.125% were used within the assay plates to serve as background and baseline controls, respectively. The assay plates were transferred to incubators (93% nitrogen, 4% carbon dioxide, and 3% oxygen during the 72-h incubation at 37° C.). Ten microliters of detection reagent consisting of 1 OX SYBR Green I (Invitrogen; supplied in 10,000× concentration) in lysis buffer (20 mM Tris-HCl, 5 mM EDTA, 0.16% Saponin wt/vol, 1.6% Triton X vol/vol) was dispensed into the assay plates. For optimal staining, the assay plates were left at room temperature for 24 h in the dark. The assay plates were read by using an Envision (PerkinElmer) reader, with 505 dichroic mirrors with 485-nm excitation and 530-nm emission settings, and the plate reads were from the bottom.

[1] = Plasmodium falciparum, DD2, 72 h

Molecule | EC50 [1] [nM] | EC50 [nM]
COc1ccc2c3c([nH]c2c1)[C@@H](CO)N(Cc1ccccc1)CC31CCN(Cc2cncnc2)CC1 [Compound 94, (S)-(2′-benzyl-7′-methoxy-1-(pyrimidin-5-ylmethyl)-1′,2′,3′,9′-tetrahydrospiro [piperidine-4,4′-pyrido[3,4-b]indol]-1′-yl) methanol] | 929 | –
COc1ccc2c3c([nH]c2c1)[C@H](CO)N(C(C)=O)CC31CCN(C(=O)Nc2cccnc2)CC1 [Compound 52, (R)-2′-acetyl-1′-(hydroxymethyl)-7′-methoxy-N-(pyridin-3-yl)-1′,2′,3′,9′-tetrahydrospiro[piperidine-4,4′-pyrido[3,4-b]indole]-1-carboxamide] | 1450 to 1980 | –
CCC(=O)N1CCC2(CC1)CN(S(=O)(=O)c1ccccc1)[C@@H](CO)c1[nH]c3cc(OC)ccc3c12 [Compound 116, (R)-1-(1′-(hydroxymethyl)-7′-methoxy-2′-(phenylsulfonyl)-1′,2′,3′,9′-tetrahydrospiro [piperidine-4,4′-pyrido[3,4-b]indol]-1-yl) propan-1-one] | 1470 | –
CCS(=O)(=O)N1CCC2(CC1)CN(S(=O)(=O)c1ccc(C)cc1)[C@@H](CO)c1[nH]c3cc(OC)ccc3c12 [Compound 124, (R)-(1-(ethylsulfony1)-7′-methoxy-2′-tosyl-1′,2′,3′,9′-tetrahydrospiro [piperidine-4,4′-pyrido[3,4-b]indol]-1′-yl)methanol] | 880 | –
CCCC(=O)N1CC2(C1)CN(S(=O)(=O)c1ccc(C)cc1)[C@@H](CO)c1[nH]c3cc(OC)ccc3c12 [Compound 120, (R)-1-(1′-(hydroxymethyl)-7′-methoxy-2′-tosyl-1′,2′,3′,9′-tetrahydrospiro[azetidine-3,4′-pyrido[3,4-b]indol]-1-yl)butan-1-one] | 1650 | –
COc1cc2[nH]c3c(c2cc1OC)C1(CCN(C(=O)Nc2ccccc2F)CC1)CN(C(C)=O)[C@H]3CO [Compound 139, (R)-2′-acetyl-N-(2-fluorophenyl)-1′-(hydroxymethyl)-6′,7′-d imethoxy-1′,2′,3′,9′-tetrahydrospiro [piperidine-4,4′-pyrido[3,4-b]indole]-1-carboxamide] | 5760 | –
COc1ccc2c3c([nH]c2c1)[C@H](CO)N(Cc1cccc(F)c1)CC31CCN(Cc2ccccn2)CC1 [Compound 78, (R)-(2′-(3-fluorobenzyl)-7′-methoxy-1-(pyridin-2-ylmethyl)-1′,2′,3′,9′-tetrahydrospiro [piperidine-4,4′-pyrido[3,4-b]indol]-1′-yl)methanol] | 905 | –
COc1ccc2c3c([nH]c2c1)[C@H](CO)N(C(=O)C1CCOCC1)CC31CCN(Cc2nccs2)CC1 [Compound 104, (R)-(1′-(hydroxymethyl)-7′-methoxy-1-(thiazol-2-ylmethyl)spiro[piperidine-4,4′-pyrido[3,4-b]indol]-2′(1′H,3′H,9′H)-yl)(tetrahydro-2H-pyran-4-yl)methanone] | 467 | –
COc1ccc2c3c([nH]c2c1)[C@H](CO[Si](C)(C)C(C)(C)C)N(C(C)=O)CC31CCN(C(=O)Nc2cccnc2)CC1 [Compound 7] | 1380 | –
COc1ccc2c3c(n(C)c2c1)[C@@H](CO)N(C(=O)c1ccc(F)cc1)CC31CN(C(=O)Nc2ccc(F)cc2)C1 [Compound 108, (S)-2′-(4-fluorobenzoyl)-N-(4-fluorophenyl)-1′-(hydroxymethyl)-7′-methoxy-9′-methyl-1′,2′,3′,9′-tetrahydrospiro[azetidine-3,4′-pyrido[3,4-b]indole]-1-carboxamide] | 1220 | –
COc1ccc2c3c([nH]c2c1)[C@H](CO)N(C(=O)c1ccccc1)CC31CCN(C(=O)Nc2ccccc2F)CC1 [Compound 50, (R)-2′-benzoyl-N-(2-fluorophenyl)-1′-(hydroxymethyl)-7′-methoxy-1′,2′,3′,9′-tetrahydrospiro[piperidine-4,4′-pyrido[3,4-b]indole]-1-carboxamide] | 1240 to 2250 | –
COc1ccc2c3c([nH]c2c1)[C@H](CN(C)C)N(C(C)=O)CC31CCN(C(=O)Nc2ccccc2F)CC1 [Compound 32, (S)-2′-acetyl-1′-((dimethylamino)methyl)-N-(2-fluoropheny1)-7′-methoxy-1′,2′,3′,9′-tetrahydrospiro[piperidine-4,4′-pyrido[3,4-b]indole]-1-carboxamide] | 485 | –
COc1ccc2c3c([nH]c2c1)[C@H](CO)N(C(=O)Nc1ccc(F)cc1)CC31CCN(S(=O)(=O)c2cccc(F)c2)CC1 [Compound 128, (R)-N-(4-fluorophenyl)-1-((3-fluorophenyl)sulfonyl)-1′-(hydroxymethyl)-7′-methoxy-3′,9′-dihydrospiro [piperidine-4,4′-pyrido[3,4-b]indole]-2′(1′H)-carboxamide] | 750 | –
CNC[C@H]1c2[nH]c3cc(OC)ccc3c2C2(CCN(C(=O)Nc3ccccc3F)CC2)CN1C(C)=O [Compound 6, (S)-2′-acetyl-N-(2-fluorophenyl)-7′-methoxy-1′-((methylamino)methyl)-1′,2′,3′,9′-tetrahydrospiro[piperidine-4,4′-pyrido[3,4-b]indole]-1-carboxamide] | 183 to 319 | –
COc1ccc2c3c([nH]c2c1)[C@H](CO)N(C(C)=O)CC31CCN(C(=O)Cc2ccccc2F)CC1 [Compound 39] | 752 | –
COc1ccc2c3c([nH]c2c1)[C@H](CO)N(S(=O)(=O)c1ccccc1)CC31CCN(C(=O)Nc2ccccc2F)CC1 [Compound 147, (R)-N-(2-fluorophenyl)-1′-(hydroxymethyl)-7′-methoxy-2′-(phenylsulfonyl)-1′,2′,3′,9′-tetrahydrospiro [piperidine-4,4′-pyrido+[,4-b]indole]-1-carboxamide] | 391 | –
COc1ccc(S(=O)(=O)N2CCC3(CC2)CN(Cc2ccncc2)[C@H](CO)c2[nH]c4cc(OC)ccc4c23)cc1 [Compound 119, (S)-(7′-methoxy-1-((4-methoxyphenyl)sulfonyl)-2′-(pyridin-4-ylmethyl)-1′,2′,3′,9′-tetrahydrospiro [piperidine-4,4′-pyrido[3,4-b]indol]-1′-yl) methanol] | 1720 | –
COc1ccc2c3c([nH]c2c1)[C@@H]1COCC(=O)N1CC31CCN(C(=O)Nc2ccccc2F)CC1 [Compound 47, (R)-N-(2-fluorophenyl)-10-methoxy-4-oxo-1,3,4,6,12,12b-hexahydrospiro[[1,4]oxazino[4′,3′:1 ,2]pyrido[3,4-b]indole-7,4′-piperidine]-1′-carboxamide] | 2230 to 3230 | –
CCN1CC2(CCN(C(=O)OC(C)(C)C)CC2)c2c([nH]c3cc(OC)ccc23)[C@@H]1CO[Si](C)(C)C(C)(C)C [Compound 56, (R)-tert-butyl 1′-(((tert-butyldimethylsilyl)oxy)methyl)-2′-ethyl-7′-methoxy-1′,2′,3′,9′-tetrahydrospiro [piperidine-4,4′-pyrido[3,4-b]indole]-1-carboxylate] | 1040 to 8770 | –
COc1ccc2c3c(n(C)c2c1)[C@@H](CO)N(C(=O)C1CCCC1)CC31CCN(C(=O)Nc2cccc(F)c2)CC1 [Compound 100, (S)-2′-(cyclopentanecarbonyl)-N-(3-fluorophenyl)-1′-(hydroxymethyl)-7′-methoxy-9′-methyl-1′,2′,3′,9′-tetrahydrospiro[piperidine-4,4′-pyrido[3,4-b]indole]-1-carboxamide] | 418 | –
COc1ccc2c3c([nH]c2c1)[C@H](CO)N(C(C)=O)CC31CCN(C(=O)Nc2ccc(F)cc2F)CC1 [Compound 54, (R)-2′-acetyl-N-(2,4-difluorophenyl)-1′-(hydroxymethyl)-7′-methoxy-1′,2′,3′,9′-tetrahydrospiro[piperidine-4,4′-pyrido[3,4-b]indole]-1-carboxamide] | 353 to 551 | –
Mixture of (1R,3′R) and (1R,3′s)-2-acetyl-N-(2- fluorophenyl)-1- (hydroxymethyl)-7- methoxy-1,2,3,9- tetrahydrospiro[pyrido [3,4-b]indole-4,3′- pyrrolidine]-1′- carboxamide compound with (1R,3′S)-2- acetyl-N-(2- fluorophenyl)-1- (hydroxymethyl)-7- methoxy- 1,2,3,9-tetrahydrospiro [pyrido[3,4-b] indole-4,3′-pyrrolidine]- 1′-carboxamide (1:1) [Compound 72] | – | 16500
COc1ccc2c3c([nH]c2c1)C(C)(C)N(C(C)=O)CC31CCN(C(=O)OC(C)(C)C)CC1 [Compound 14, tert-butyl 2′-acetyl-7′-methoxy-1′,1′-dimethyl-1′,2′,3′,9′-tetrahydrospiro [piperidine-4,4′-pyrido[3,4-b]indole]-1-carboxylate] | 415 | –

From patent US9428507B2, “Compounds for the treatment of malaria” (The Broad Institute, Inc., priority 2013, dated 2016)
